From patent EP2607478A1, “Phenanthroline treated MSC” (Universiteit Twente, priority 2011, dated 2013)

Test system: MSCs
Assay: Whole genome expression analysis (Illumina microarray) of treated MSCs
Format: cell-based, Human
Experimental: MSCs were seeded in T25 flasks at 5000 cells/cm^2 and allowed to attach overnight in proliferation medium. […] After 48 hours, RNA was isolated as described above. From 500 ng of RNA, cRNA was synthesized using the Illumina TotalPrep RNA amplification Kit (Ambion), according to the manufacturer's protocol and the quality of RNA and cRNA was verified on a Bioanalyzer 2100 (Agilent). Microarrays were performed using Illumina HT-12 v4 expression Beadchips, according to the manufacturer's protocol. Briefly, 750 ng of cRNA was hybridized on the array overnight after which the array was washed and blocked. Then, by addition of streptavidin Cy-3 a fluorescent signal was developed. Arrays were scanned on an Illumina iScan reader and raw intensity values were background corrected in GenomeStudio (Illumina). Further data processing and statistical testing were performed with R and Bioconductor statistical software (www.bioconductor.org), using package lumi. Raw intensity values were transformed using variance stabilization and a quantile normalization was performed. A linear modelling approach with empirical Bayesian methods, as implemented in Limma package (54), was applied for differential expression analysis of the resulting probe-level expression values. A gene list, containing only those genes with an absolute 1.5-fold change between different treatments, was uploaded to Ingenuity Pathway Analysis (IPA) software and used for core analysis. Pathways or networks with a p-value of 0.05 were considered statistically significant.

Q: Which results are given for `c1cnc2c(c1)ccc1cccnc12` [PHE, 1, 10-phenanthroline]?
A: logFC(D142_PHE - D142_BAS) (ProbeID ILMN_1827736, no gene name printed): 2,01; logFC(D142_PHE - D142_BAS) (ProbeID ILMN_1843198, no gene name printed): 4,02; logFC(D142_PHE - D142_BAS) (ProbeID ILMN_1854469, no gene name printed): -2,31; logFC(D142_PHE - D142_BAS) (ProbeID ILMN_1862909, no gene name printed): 2,60; logFC(D142_PHE - D142_BAS) (ProbeID ILMN_1890614, no gene name printed): 3,60; logFC(D142_PHE - D142_BAS) LDLR (ProbeID ILMN_2053415): -2,22; logFC(D142_PHE - D142_BAS) PTGS2 (ProbeID ILMN_2054297): 2,59; logFC(D142_PHE - D142_BAS) GAS1 (ProbeID ILMN_2062701): -2,22; logFC(D142_PHE - D142_BAS) GOLGA8B (ProbeID ILMN_2103547): 2,29; logFC(D142_PHE - D142_BAS) EEF1A2 (ProbeID ILMN_2108735): 4,24; logFC(D142_PHE - D142_BAS) NPM3 (ProbeID ILMN_2110252, PHE vs BAS): -2,68; logFC(D142_PHE - D142_BAS) CTHRC1 (ProbeID ILMN_2117508, PHE vs BAS): -3,58; logFC(D142_PHE - D142_BAS) LRIG1 (ProbeID ILMN_2128795): 2,70; logFC(D142_PHE - D142_BAS) CYBASC3 (ProbeID ILMN_2129505): -2,00; logFC(D142_PHE - D142_BAS) IGFBP5 (ProbeID ILMN_2132982): 2,36; logFC(D142_PHE - D142_BAS) POL3S (ProbeID ILMN_2133187): 2,59; logFC(D142_PHE - D142_BAS) PLIN2 (ProbeID ILMN_2138765): 3,41; logFC(D142_PHE - D142_BAS) HIST2H2AA3 (ProbeID ILMN_2144426): 3,65; logFC(D142_PHE - D142_BAS) TNC (ProbeID ILMN_2145670, PHE vs BAS): -2,96; logFC(D142_PHE - D142_BAS) GBP1 (ProbeID ILMN_2148785, PHE vs BAS): -2,77; logFC(D142_PHE - D142_BAS) SERPINB2 (ProbeID ILMN_2150851): 2,73; logFC(D142_PHE - D142_BAS) SERPINB2 (ProbeID ILMN_2150856): 2,92; logFC(D142_PHE - D142_BAS) ALDH1B1 (ProbeID ILMN_2150894, PHE vs BAS): -3,56; logFC(D142_PHE - D142_BAS) MNS1 (ProbeID ILMN_2157240): -2,02; logFC(D142_PHE - D142_BAS) GPI (ProbeID ILMN_2173451): 2,47; logFC(D142_PHE - D142_BAS) MT1E (ProbeID ILMN_2173611): -2,20; logFC(D142_PHE - D142_BAS) IL8 (ProbeID ILMN_2184373): 6,28; logFC(D142_PHE - D142_BAS) PFKFB3 (ProbeID ILMN_2186061): 5,23; logFC(D142_PHE - D142_BAS) RRAD (ProbeID ILMN_2186137): 3,18; logFC(D142_PHE - D142_BAS) GDF15 (ProbeID ILMN_2188862): 4,56; logFC(D142_PHE - D142_BAS) MELK (ProbeID ILMN_2212909): -2,05; logFC(D142_PHE - D142_BAS) PGK1 (ProbeID ILMN_2216852): 2,97; logFC(D142_PHE - D142_BAS) PTGR1 (ProbeID ILMN_2225537): 2,90; logFC(D142_PHE - D142_BAS) SLAMF9 (ProbeID ILMN_2227248): 2,67; logFC(D142_PHE - D142_BAS) PCDH18 (ProbeID ILMN_2229877, PHE vs BAS): -2,41; logFC(D142_PHE - D142_BAS) BEX1 (ProbeID ILMN_2234697, PHE vs BAS): -4,70; logFC(D142_PHE - D142_BAS) LEPR (ProbeID ILMN_2234956, PHE vs BAS): -2,85; logFC(D142_PHE - D142_BAS) KIAA0101 (ProbeID ILMN_2285996, PHE vs BAS): -3,27; logFC(D142_PHE - D142_BAS) UBE2C (ProbeID ILMN_2301083): -2,20; logFC(D142_PHE - D142_BAS) VCAM1 (ProbeID ILMN_2307903, PHE vs BAS): -5,09; logFC(D142_PHE - D142_BAS) WFDC3 (ProbeID ILMN_2308903): 2,87; logFC(D142_PHE - D142_BAS) MAFF (ProbeID ILMN_2322375): 3,04; logFC(D142_PHE - D142_BAS) RORA (ProbeID ILMN_2322498): 2,13; logFC(D142_PHE - D142_BAS) CALD1 (ProbeID ILMN_2324002): -2,11; logFC(D142_PHE - D142_BAS) TXNRD1 (ProbeID ILMN_2324421): 2,30; logFC(D142_PHE - D142_BAS) MSRB3 (ProbeID ILMN_2332553): -2,12; logFC(D142_PHE - D142_BAS) PORCN (ProbeID ILMN_2337058): 3,30; logFC(D142_PHE - D142_BAS) AK3L1 (ProbeID ILMN_2338038): 2,61; logFC(D142_PHE - D142_BAS) METRNL (ProbeID ILMN_2342066): 2,12; logFC(D142_PHE - D142_BAS) FMO3 (ProbeID ILMN_2344283): -2,27; logFC(D142_PHE - D142_BAS) BIRC5 (ProbeID ILMN_2349459, PHE vs BAS): -2,71; logFC(D142_PHE - D142_BAS) MAD1L1 (ProbeID ILMN_2358069): 2,09; logFC(D142_PHE - D142_BAS) TPM1 (ProbeID ILMN_2360710): -2,27; logFC(D142_PHE - D142_BAS) VLDLR (ProbeID ILMN_2361862): 3,53; logFC(D142_PHE - D142_BAS) SLC16A3 (ProbeID ILMN_2364022): 2,29; logFC(D142_PHE - D142_BAS) SMOX (ProbeID ILMN_2367258): 2,05; logFC(D142_PHE - D142_BAS) CXCR7 (ProbeID ILMN_2371458): 2,54; logFC(D142_PHE - D142_BAS) MUC1 (ProbeID ILMN_2371911): 2,27; logFC(D142_PHE - D142_BAS) ATF3 (ProbeID ILMN_2374865): 2,39; logFC(D142_PHE - D142_BAS) VEGFA (ProbeID ILMN_2375879): 4,30; logFC(D142_PHE - D142_BAS) KCNK2 (ProbeID ILMN_2376953, PHE vs BAS): -3,27; logFC(D142_PHE - D142_BAS) PTPRF (ProbeID ILMN_2380163): 2,36; logFC(D142_PHE - D142_BAS) AKR1A1 (ProbeID ILMN_2380771): -2,14; logFC(D142_PHE - D142_BAS) P4HA2 (ProbeID ILMN_2381697): 2,27; logFC(D142_PHE - D142_BAS) CA12 (ProbeID ILMN_2382942): 2,61; logFC(D142_PHE - D142_BAS) ANGPTL4 (ProbeID ILMN_2386444): 3,59; logFC(D142_PHE - D142_BAS) EPSTI1 (ProbeID ILMN_2388547, PHE vs BAS): -2,93; logFC(D142_PHE - D142_BAS) PSMB8 (ProbeID ILMN_2390299, PHE vs BAS): -2,40; logFC(D142_PHE - D142_BAS) UBE2E3 (ProbeID ILMN_2390338): -2,31; logFC(D142_PHE - D142_BAS) FBLN2 (ProbeID ILMN_2390919): -2,30; logFC(D142_PHE - D142_BAS) TAGLN (ProbeID ILMN_2400935, PHE vs BAS): -3,44; logFC(D142_PHE - D142_BAS) FAM13A (ProbeID ILMN_2401258): 2,84; logFC(D142_PHE - D142_BAS) RIOK3 (ProbeID ILMN_2404135): 2,47; logFC(D142_PHE - D142_BAS) ARNTL (ProbeID ILMN_2405305): 2,05; logFC(D142_PHE - D142_BAS) PODXL (ProbeID ILMN_2413158): 3,57; logFC(D142_PHE - D142_BAS) LOC100130790 (ProbeID ILMN_3181489): 3,33; logFC(D142_PHE - D142_BAS) LOC727803 (ProbeID ILMN_3212373): -2,02; logFC(D142_PHE - D142_BAS) LOC730415 (ProbeID ILMN_3228688): 2,25; logFC(D142_PHE - D142_BAS) LOC390557 (ProbeID ILMN_3233930): 2,45; logFC(D142_PHE - D142_BAS) LOC100133609 (ProbeID ILMN_3237270): 2,75; logFC(D142_PHE - D142_BAS) BEND5 (ProbeID ILMN_3237448): 2,26; logFC(D142_PHE - D142_BAS) C4orf47 (ProbeID ILMN_3237511): 2,24; logFC(D142_PHE - D142_BAS) FBXL11 (ProbeID ILMN_3237966): 2,06; logFC(D142_PHE - D142_BAS) DLGAP5 (ProbeID ILMN_3239771): -2,24; logFC(D142_PHE - D142_BAS) HIST2H2AA4 (ProbeID ILMN_3242900): 3,75; logFC(D142_PHE - D142_BAS) FAM180A (ProbeID ILMN_3245418): 2,34; logFC(D142_PHE - D142_BAS) LOC730743 (ProbeID ILMN_3247132, PHE vs BAS): -2,35; logFC(D142_PHE - D142_BAS) GAPDHL6 (ProbeID ILMN_3267451): 2,90; logFC(D142_PHE - D142_BAS) LOC100132510 (ProbeID ILMN_3280402): 2,32; logFC(D142_PHE - D142_BAS) LOC644237 (ProbeID ILMN_3283772): 2,73; logFC(D142_PHE - D142_BAS) LOC729708 (ProbeID ILMN_3305475): 2,12; logFC(D142_PHE - D142_BAS) LOC730246 (ProbeID ILMN_3305949): -2,06; logFC(D142_PHE - D142_BAS) MIR1974 (ProbeID ILMN_3308961): 3,51
